Data on 17 compounds can be found in patent publication US8710049B2, “Diaminocyclohexane compounds and uses thereof” (Bristol-Myers Squibb Company, priority 2011, dated 2014).

The target in the first assay is T1, Y4 receptor (Homo sapiens, UniProt P50391).
T1 sequence (P50391 whole entry): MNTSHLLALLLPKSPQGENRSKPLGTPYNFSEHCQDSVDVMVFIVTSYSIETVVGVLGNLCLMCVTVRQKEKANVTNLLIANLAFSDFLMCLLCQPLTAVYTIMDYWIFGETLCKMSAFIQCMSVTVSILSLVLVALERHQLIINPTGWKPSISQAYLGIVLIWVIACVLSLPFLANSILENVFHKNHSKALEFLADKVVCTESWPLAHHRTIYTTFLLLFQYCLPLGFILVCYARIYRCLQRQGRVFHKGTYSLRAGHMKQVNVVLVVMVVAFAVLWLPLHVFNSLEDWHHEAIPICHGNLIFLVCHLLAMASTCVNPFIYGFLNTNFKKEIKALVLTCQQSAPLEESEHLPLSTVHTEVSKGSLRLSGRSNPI
Assay: not given
Particulars: background statement; cited from earlier work.
Regarding “PYY: naturally secreted 36 amino acid, C-terminally amidated PP-fold peptide”, the “affinity for Y4 receptor” value is on record as “nanomolar affinity”.

For another assay, the target named is T1, Y4 receptor. In words: NPY4 cAMP HTRF Agonist Assay. The class given is cell-based. More on the design: expressed in transfected cells. Particulars: human Y4 stable CHO clonal cells; inhibitory cAMP assay with Forskolin and IBMX, 30 minutes at room temperature. As for the experimental part: NPY4 cAMP HTRF Agonist Assay
The functionality of the compound at Y4 receptor was analyzed using an inhibitory cAMP assay (CISBIO, HTRF cAMP kit #62AM4PEC) to measure the Gi activation by Y4 agonism.
The human Y4 stable CHO clonal cells were maintained in culture medium (F-12 containing 10% Fetal Bovine Serum, […] GENETICIN®, […] Zeocin). Before the experiment, 5 μL of 1 uM Forskolin (Sigma, # F6886) and 100 uM IBMX (Sigma, #15879) in PBS buffer were added into 384-well plates (PE, Proxi-plate) that were pre-dotted with […] compounds. The cells were removed from the flasks by Cellstripper, counted and adjusted to 1.0×10^6 cells/mL in PBS buffer, and added 5 μL/well (5000 cells/well) into the above 384-well plates. The cells were then covered and incubated for 30 minutes at room temperature. After incubation, 5 μL/well of D2-conjugate in HTRF lysis buffer was first added, followed by adding 5 μL/well of anti-cAMP Cryptate in HTRF lysis buffer. The plates were incubated for another 1 hour at room temperature and read on the EnVision Multilabel Plate Reader.
(TR-FRET usually uses a lanthanide donor and a delayed reading to cut background.)
As a reminder, the EC50 is the concentration at which the effect is half-maximal. As for `O=C(Nc1ccccc1)N[C@@H]1CCCC[C@H]1N[C@H]1CCCN(c2ccc([N+](=O)[O-])cc2)C1` [Example 1, 1-((1R,2R)-2-((S)-1-(4-Nitrophenyl)piperidin-3-ylamino)cyclohexyl)-3-phenyl urea], the EC50 was determined as 81 nM.
Still for that read-out and setting: next, `N#Cc1ccc(N2CCC[C@H](N[C@@H]3CCCC[C@H]3NC(=O)Nc3cccc(O)c3)C2)cc1` [Example 36, 1-((1R,2R)-2-((S)-1-(4-Cyanophenyl)piperidin-3-ylamino)cyclohexyl)-3-(3-hydroxyphenyl)urea]: 610 nM; `O=C(Nc1cc(C(F)(F)F)cc(C(F)(F)F)c1)N[C@@H]1CCCC[C@H]1N[C@H]1CCCN(c2ccc(C(F)(F)F)cc2)C1` [Example 89]: 2340 nM; `N#Cc1cc(N2CCC[C@H](N[C@@H]3CCCC[C@H]3NC(=O)Nc3ccccc3)C2)ccn1` [Example 45, 1-((1R,2R)-2-((S)-1-(2-Cyanopyridin-4-yl)piperidin-3-ylamino)cyclohexyl)-3-phenylurea]: 1460 nM.
In the case of `Cn1cc(CC(=O)N[C@@H]2CCCC[C@H]2N[C@H]2CCCN(c3ccc(C#N)cc3)C2)c2ccccc21` [Example 10, N-((1R,2R)-2-((S)-1-(4-Cyanophenyl)piperidin-3-ylamino)cyclohexyl)-2-(1-methyl-1H-indol-3-yl)acetamide], the EC50 was found to be 330 nM.
The compound `O=C(N[C@@H]1CCCC[C@H]1N[C@H]1CCCN(c2ccc(-c3nc4ccccc4o3)cc2)C1)OCc1ccccc1` [Example 43, Benzyl (1R,2R)-2-((S)-1-(4-(benzo[d]oxazol-2-yl)phenyl)piperidin-3-ylamino)cyclohexylcarbamate] showed an EC50 of 1400 nM.
Still for that read-out and setting: next, `N#Cc1ccc(N2CCC[C@H](N[C@@H]3CCCC[C@H]3NC(=O)Nc3ccc(C(F)(F)F)cc3)C2)cc1` [Example 56, 1-((1R,2R)-2-((S)-1-(4-Cyanophenyl)piperidin-3-ylamino)cyclohexyl)-3-(4-(trifluoromethyl)phenyl)urea]: 3620 nM; `C[C@]1(N[C@@H]2CCCC[C@H]2NC(=O)OCc2ccccc2)CCCN(c2ccc([N+](=O)[O-])cc2)C1` [Example 58, Benzyl (1R,2R)-2-((S)-3-methyl-1-(4-nitrophenyl)piperidin-3-ylamino)cyclohexylcarbamate]: 10 nM; `CCOC(=O)c1ccc(N2CC[C@H](N[C@@H]3CCCC[C@H]3NC(=O)OCc3ccccc3)C2)cc1` [Example 32, Ethyl 4-((S)-3-((1R,2R)-2-(benzyloxycarbonylamino)cyclohexylamino)pyrrolidin-1-yl)benzoate]: 540 nM.
Still for that read-out and setting: next, `COc1ccc(COC(=O)N[C@@H]2CCCC[C@H]2N[C@H]2CCCN(c3ccc(C#N)cc3)C2)cc1` [Example 34, 4-Methoxybenzyl (1R,2R)-2-((S)-1-(4-cyanophenyl)piperidin-3-ylamino)cyclohexylcarbamate]: 575 nM.
Same read-out and setting: next, `O=C(Nc1ccc(OC(F)(F)F)cc1)N[C@@H]1CCCC[C@H]1N[C@H]1C[C@@H]2C[C@H]1N(c1ccc([N+](=O)[O-])cc1)C2` [Example 4, 1-((1R,2R)-2-((1R,4R,6S)-2-(4-Nitrophenyl)-2-azabicyclo[2.2.1]heptan-6-ylamino)cyclohexyl)-3-(4-(trifluoromethoxy)phenyl)urea]: 25 nM; `Cc1nnc(-c2ccc(N3CCC[C@H](N[C@@H]4CCCC[C@H]4NC(=O)OCc4ccccc4)C3)cc2)o1` [Example 7, Benzyl (1R,2R)-2-((S)-1-(4-(5-methyl-1,3,4-oxadiazol-2-yl)phenyl)piperidin-3-ylamino)cyclohexylcarbamate]: 72 nM; `O=C(Nc1ccccc1)N[C@@H]1CCCC[C@H]1N[C@H]1CCCN(c2ccc([N+](=O)[O-])cc2)CC1` [Example 52, 1-((1R,2R)-2-((S)-1-(4-Nitrophenyl)azepan-4-ylamino)cyclohexyl)-3-phenylurea]: 2890 nM.
The compound `O=C(Nc1ccc(OC(F)(F)F)cc1)N[C@@H]1CCCC[C@H]1N[C@H]1CCCN(c2ccc([N+](=O)[O-])cc2)C1` [Example 3, 1-((1R,2R)-2-((S)-1-(4-Nitrophenyl)piperidin-3-ylamino)cyclohexyl)-3-(4-(trifluoromethoxy)phenyl)urea] displayed an EC50 of 46 nM.
The same measure, in the same setting: next, `Cc1ccc(COC(=O)N[C@@H]2CCCC[C@H]2N[C@H]2CCCN(c3ccc(C(F)(F)F)cc3)C2)cc1` [Example 63]: 515 nM; `N#Cc1ccc(N2CCC[C@H](N[C@@H]3CCCC[C@H]3NC(=O)OCc3ccc(OC(F)(F)F)cc3)C2)cc1` [Example 16, 4-(Trifluoromethoxy)benzyl (1R,2R)-2-((S)-1-(4-cyanophenyl)piperidin-3-ylamino)cyclohexylcarbamate]: 72 nM.
